Assay results taken from US5876946A, “High-throughput assay” (Pharmacopeia, Inc., priority 1997, dated 1999).

How the values were obtained:
[1] = target: T1, neurokinin-2 receptor (NK2R/CHO cells) (Homo sapiens, UniProt P21452); assay: Displacement of Cy5-NKA bound to NK2R/CHO cells by SR48,968; assay type: binding
T1 construct: expressed in transfected cells; host or cells: CHO cells (NK2R/CHO)
T1 sequence (P21452 1-398): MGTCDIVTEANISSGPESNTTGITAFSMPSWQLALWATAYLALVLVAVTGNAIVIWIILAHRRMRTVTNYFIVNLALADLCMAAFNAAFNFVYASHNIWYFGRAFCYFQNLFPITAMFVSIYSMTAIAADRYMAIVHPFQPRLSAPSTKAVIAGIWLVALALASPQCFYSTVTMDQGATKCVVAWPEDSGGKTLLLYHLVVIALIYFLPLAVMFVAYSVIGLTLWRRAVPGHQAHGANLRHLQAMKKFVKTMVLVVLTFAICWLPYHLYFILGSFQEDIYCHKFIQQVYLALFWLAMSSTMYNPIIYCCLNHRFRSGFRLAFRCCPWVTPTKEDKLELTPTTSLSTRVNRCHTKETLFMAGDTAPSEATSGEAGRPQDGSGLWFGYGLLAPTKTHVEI
Protocol: (a) Cells expressing neurokinin-2 receptor (NK2R/CHO) were obtained.
A culture of NK2R/CHO cells, near confluence, was washed with 12 mL DPBS(Mg^+2 & Ca^+2 free), trypsinized by adding trypsin (2 mL/T-25 flask), incubating at 37° C. for about 5 min, then quenching with 10 mL media. Cells were then counted, and diluted to the desired final concentration of cells (5,000 cells/25 μL). […] The plate was covered and wrapped in aluminum foil to protect from light and left to shake for 1 hr at room temperature. For each sample, 25 μL was removed, placed in an IMAGN 2000™ capillary, and read using IMAGN™ software (Biometric Imaging, Inc.) The sample was allowed to settle until the cells rested on the bottom of the well. The time require for settling was typically 10 minutes.
SR-48,968 is a known inhibitor of the binding of NKA neurokinin 2 receptor.
"Max" and "min" refer to the maximum and minimum fluorescence for the relevant value.
% Control=((Value-Min)/(Max-Min))×100

IL-8 receptor = assay: conventional [^125 I]IL-8 ligand displacement assay; assay type: binding

Molecule	IC50 [1]	estimated Ki ([1]; displacement of Cy5-NKA)	Hill coefficient ([1]; displacement of Cy5-NKA by SR48.968)	Ki (IL-8 receptor)
CC(=O)NC1(c2ccccc2)CCN(CCC(CN(C)C(=O)c2ccccc2)c2ccc(Cl)c(Cl)c2)CC1 (stereo not shown) [SR48.968]	0.575 nM	~0.29 nM	0.996	
hIL(S72C)-Cy5: Human interleukin-8, Ser72→Cys mutant (hIL-8(S72C)), labelled with monofunctional Cy5-iodoacetamide				2 nM
